Test results: ChEMBL document CHEMBL1143536, “QSAR analyses of conformationally restricted 1,5-diaryl pyrazoles as selective COX-2 inhibitors: application of connection table representation of ligands” (Bioorg Med Chem Lett, 2005)

What was measured:
[1] = In vitro inhibitory concentration against Prostaglandin G/H synthase 1 (COX-1)
[2] = Ratio of inhibitory concentration against prostaglandin G/H synthase 1 to that of prostaglandin G/H synthase 2
[3] = biological target: T1, Prostaglandin G/H synthase 2 (Homo sapiens, UniProt P35354); assay: In vitro inhibitory concentration against Prostaglandin G/H synthase 2 (COX-2)
T1 sequence (P35354 whole entry): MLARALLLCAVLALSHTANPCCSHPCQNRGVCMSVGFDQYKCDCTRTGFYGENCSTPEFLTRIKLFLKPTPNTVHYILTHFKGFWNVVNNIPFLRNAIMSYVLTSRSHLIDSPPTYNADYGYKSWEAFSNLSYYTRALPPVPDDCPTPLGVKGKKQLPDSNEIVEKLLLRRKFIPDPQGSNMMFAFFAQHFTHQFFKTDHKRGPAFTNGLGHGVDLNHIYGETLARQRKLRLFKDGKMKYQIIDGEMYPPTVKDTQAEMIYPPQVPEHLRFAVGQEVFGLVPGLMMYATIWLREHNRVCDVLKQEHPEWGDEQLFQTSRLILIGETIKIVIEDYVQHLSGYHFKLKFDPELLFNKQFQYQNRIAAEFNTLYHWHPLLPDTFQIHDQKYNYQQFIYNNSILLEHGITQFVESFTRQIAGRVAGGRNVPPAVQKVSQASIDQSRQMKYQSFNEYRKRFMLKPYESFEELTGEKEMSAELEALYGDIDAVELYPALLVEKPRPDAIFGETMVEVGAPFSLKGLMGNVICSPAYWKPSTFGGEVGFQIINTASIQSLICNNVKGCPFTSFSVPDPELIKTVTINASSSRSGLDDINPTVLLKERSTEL

| Structure (SMILES) | Log IC50 [1] | Ratio [2] | IC50 [3] [nM] |
| --- | --- | --- | --- |
| COc1ccc2c(c1F)CSc1c(C(F)F)nn(-c3ccc(S(N)(=O)=O)cc3)c1-2 | – | – | 32.4 |
| NS(=O)(=O)c1ccc(-n2nc(C(F)(F)F)c3c2-c2ccccc2OC3)cc1 | -5.15 | 0.72 | – |
| COc1ccc2c(c1F)CSc1c(C(F)(F)F)nn(-c3ccc(S(C)(=O)=O)cc3)c1-2 | – | – | 75.9 |
| NS(=O)(=O)c1ccc(-n2nc(C(F)(F)F)c3c2-c2ccccc2SC3)cc1 | -5.01 | – | – |
| N#Cc1nn(-c2ccc(S(N)(=O)=O)cc2)c2c1SCc1cc(F)ccc1-2 | -6.12 | 0.7 | – |
| COc1ccc2c(c1F)C[S+]([O-])c1c(C(F)(F)F)nn(-c3ccc(S(N)(=O)=O)cc3)c1-2 (stereo not drawn) | – | – | 1510 |

Other lines, results leading:

| Log IC50 [1] | Ratio [2] | IC50 [3] [nM] | Structure (SMILES) |
| --- | --- | --- | --- |
| -6.52 | 1.36 | – | COc1ccc2c(c1)CSc1c(C(F)(F)F)nn(-c3ccc(S(N)(=O)=O)cc3)c1-2 |
| -5.56 | 2.48 | 8.91 | COc1ccc2c(c1F)CSc1c(C(F)(F)F)nn(-c3ccc(S(N)(=O)=O)cc3)c1-2 |
| -6.57 | 0.84 | – | NS(=O)(=O)c1ccc(-n2nc(C(F)(F)F)c3c2-c2ccc(F)cc2CS3)cc1 |
| -5.57 | 2.58 | 6.03 | NS(=O)(=O)c1ccc(-n2nc(C(F)(F)F)c3c2-c2ccc(F)c(F)c2CS3)cc1 |
| -5.2 | 2.47 | 20.9 | NS(=O)(=O)c1ccc(-n2nc(C(F)(F)F)c3c2-c2cccc(F)c2CS3)cc1 |
| -6.1 | 1.56 | – | Cc1ccc2c(c1)CSc1c(C(F)(F)F)nn(-c3ccc(S(N)(=O)=O)cc3)c1-2 |
| -6.4 | 1.3 | – | NS(=O)(=O)c1ccc(-n2nc(C(F)(F)F)c3c2-c2ccccc2CS3)cc1 |
| -4.95 | 2.84 | 15.8 | Cc1ccc2c(c1F)CSc1c(C(F)(F)F)nn(-c3ccc(S(N)(=O)=O)cc3)c1-2 |
